Results on 17 molecules are retold here after patent publication US20250115620A1, “BRIDGED TRICYCLIC CARBAMOYLPYRIDONE COMPOUNDS AND USES THEREOF” (Gilead Sciences, Inc., priority 2022, published 2025).

The nature of one series: in vitro. To be noted: human; for CC50 at 5 days: uninfected MT-4 cells.
Another series has as its system HIV-1 (IIIB). Description: microbe, parasite or virus in culture. The format is cell-based. The following applies: Human immunodeficiency virus 1, IIIB, MT4, 120 h, read-out: MT4 EC50.
The subject of a further series is pLAI reporter virus. Description: microbe, parasite or virus in culture. Type of series: cell-based, HIV. The following applies: Human immunodeficiency virus 1, MT4, 72 h.
The mark [1] stands for this setting: HIV-1 (IIIB) in MT-4 cells, 5 days incubation, Cell Titer Glo.

SMILES strings stand for the structures. Read-outs that look alike come from different tables or passages of the source.

On to `CC1=NO[C@]2(C1)C[C@H](F)[C@H](C)N1C[C@H]2n2cc(C(=O)NCc3ccc(F)cc3F)c(=O)c(O)c2C1=O` [Example 5, (3′S,4′S,5R,7′R)—N-(2,4-difluorobenzyl)-4′-fluoro-12′-hydroxy-3,3′-dimethyl-1′,11′-dioxo-1′,4′,5′,11′-tetrahydro-3′H,4H,7′H-spiro[isoxazole-5,6′-[2,7]methanopyrido[1,2-a][1,4]diazonine]-10′-carboxamide], for which the CC50 at 5 days in “in vitro” amounted to 25800 nM. Further, the results for the EC50 in the series on HIV-1 (IIIB) (setting [1]), in the series with pLAI reporter virus (read-out: RLUC 50% HS EC50) and with pLAI reporter virus (read-out: RLUC CCM EC50) were 1.6 nM, 27.4 nM and 0.4 nM, respectively.

`C[C@H]1CC[C@]2(CC(=O)N(C)C2)[C@H]2CN1C(=O)c1c(O)c(=O)c(C(=O)NCc3c(F)cc(F)cc3F)cn12` [Example 61, (3R,3′S,7′S)-12′-hydroxy-1,3′-dimethyl-1′,5,11′-trioxo-N-(2,4,6-trifluorobenzyl)-1′,4′,5′,11′-tetrahydro-3′H,7′H-spiro[pyrrolidine-3,6′-[2,7]methanopyrido[1,2-a][1,4]diazonine]-10′-carboxamide] yielded a CC50 at 5 days in the series “in vitro” of at least 50000 nM. Also, the results for the EC50 in the series on HIV-1 (IIIB) (setting [1]), in the series with pLAI reporter virus (read-out: RLUC 50% HS EC50) and in the series with pLAI reporter virus (read-out: RLUC CCM EC50) were 7.6 nM, 3.4 nM and 1.9 nM, respectively.

In the series “in vitro”, `C[C@H]1CC[C@]2(CC(c3ccccc3)=NO2)[C@H]2CN1C(=O)c1c(O)c(=O)c(C(=O)NCc3ccc(F)cc3F)cn12` [Example 11, (3′S,5S,7′R)—N-(2,4-difluorobenzyl)-12′-hydroxy-3′-methyl-1′,11′-dioxo-3-phenyl-1′,4′,5′,11′-tetrahydro-3′H,4H,7′H-spiro[isoxazole-5,6′-[2,7]methanopyrido[1,2-a][1,4]diazonine]-10′-carboxamide] gave a CC50 at 5 days of 8730 nM. For the same molecule, the EC50 (commonly the midpoint of the concentration-response curve) in the series with HIV-1 (IIIB) (setting [1]) amounted to 1.8 nM; in the series with pLAI reporter virus (read-out: RLUC 50% HS EC50), 15.4 nM; with pLAI reporter virus (read-out: RLUC CCM EC50) it was 1.7 nM.

`CC1=NO[C@]2(CC[C@H](C)N3C[C@H]2n2cc(C(=O)NCc4ccc(F)cc4F)c(=O)c(O)c2C3=O)C1` [Example 2, (3′S,5R,7′R)—N-(2,4-difluorobenzyl)-12′-hydroxy-3,3′-dimethyl-1′,11′-dioxo-1′,4′,5′,11′-tetrahydro-3′H,4H,7′H-spiro[isoxazole-5,6′-[2,7]methanopyrido[1,2-a][1,4]diazonine]-10′-carboxamide] gave a CC50 at 5 days in the series “in vitro” of at least 50000 nM. Also, the EC50 in the series with HIV-1 (IIIB) (setting [1]) is 11.2 nM; in the series on pLAI reporter virus (read-out: RLUC 50% HS EC50), 9.2 nM; in the series with pLAI reporter virus (read-out: RLUC CCM EC50), 2.6 nM.

Take `CC1=NO[C@@]2(CC[C@@H](C)N3C[C@H]2n2cc(C(=O)NCc4c(F)cc(F)cc4F)c(=O)c(O)c2C3=O)C1` [Example 98, (3′R,5S,7′R)-12′-hydroxy-3,3′-dimethyl-1′,11′-dioxo-N-(2,4,6-trifluorobenzyl)-1′,4′,5′,11′-tetrahydro-3′H,4H,7′H-spiro[isoxazole-5,6′-[2,7]methanopyrido[1,2-a][1,4]diazonine]-10′-carboxamide]: in the series “in vitro”, the CC50 at 5 days was 12700 nM. Besides, the results for the EC50 in the series with HIV-1 (IIIB) (setting [1]), with pLAI reporter virus (read-out: RLUC 50% HS EC50) and in the series on pLAI reporter virus (read-out: RLUC CCM EC50) were 3 nM, 7.4 nM and 0.5 nM, respectively.

In the series “in vitro”, `C[C@H]1CC[C@]2(CC(OC3COC3)=NO2)[C@H]2CN1C(=O)c1c(O)c(=O)c(C(=O)NCc3ccc(F)cc3F)cn12` [Example 45, (3′S,5S,7′R)—N-(2,4-difluorobenzyl)-12′-hydroxy-3′-methyl-3-(oxetan-3-yloxy)-1′,11′-dioxo-1′,4′,5′,11′-tetrahydro-3′H,4H,7′H-spiro[isoxazole-5,6′-[2,7]methanopyrido[1,2-a][1,4]diazonine]-10′-carboxamide] registered a CC50 at 5 days of at least 50000 nM. Further, the values for the EC50 in the series with HIV-1 (IIIB) (setting [1]), in the series with pLAI reporter virus (read-out: RLUC 50% HS EC50) and with pLAI reporter virus (read-out: RLUC CCM EC50) were 2 nM, 1.8 nM and 0.4 nM, respectively.

Molecule `CO[C@H]1CS[C@@]2(CC[C@H](C)N3C[C@H]2n2cc(C(=O)NCc4c(F)cc(F)cc4F)c(=O)c(O)c2C3=O)O1` (single isomer, unassigned) [170 (peak 3)] returned a CC50 at 5 days in the series “in vitro” of 8240 nM. For the same molecule, the EC50 in the series on HIV-1 (IIIB) (setting [1]) was determined as 1.2 nM; in the series with pLAI reporter virus (read-out: RLUC 50% HS EC50) it was 43.4 nM; in the series with pLAI reporter virus (read-out: RLUC CCM EC50), 0.3 nM.

With `C[C@H]1CC[C@]2(CC(C(C)(F)F)=NO2)[C@H]2CN1C(=O)c1c(O)c(=O)c(C(=O)NCc3c(F)cc(F)cc3F)cn12` [Example 71, (3′S,5S,7′R)-3-(1,1-difluoroethyl)-12′-hydroxy-3′-methyl-1′,11′-dioxo-N-(2,4,6-trifluorobenzyl)-1′,4′,5′,11′-tetrahydro-3′H,4H,7′H-spiro[isoxazole-5,6′-[2,7]methanopyrido[1,2-a][1,4]diazonine]-10′-carboxamide], the CC50 at 5 days in the series “in vitro” was found to be 32100 nM. The EC50 in the series with HIV-1 (IIIB) (setting [1]) amounted to 3.3 nM; in the series on pLAI reporter virus (read-out: RLUC 50% HS EC50), 82.4 nM; in the series on pLAI reporter virus (read-out: RLUC CCM EC50) it was 0.2 nM.

In “in vitro”, `C[C@H]1CC[C@]2(COC(F)(F)O2)[C@H]2CN1C(=O)c1c(O)c(=O)c(C(=O)NCc3c(F)cc(F)cc3F)cn12` [Example 141, (3′S,4R,7′R)-2,2-difluoro-12′-hydroxy-3′-methyl-1′,11′-dioxo-N-(2,4,6-trifluorobenzyl)-1′,4′,5′,11′-tetrahydro-3′H,7′H-spiro[[1,3]dioxolane-4,6′-[2,7]methanopyrido[1,2-a][1,4]diazonine]-10′-carboxamide] registered a CC50 at 5 days of 30400 nM. The results for the EC50 with HIV-1 (IIIB) (setting [1]), in the series with pLAI reporter virus (read-out: RLUC 50% HS EC50) and in the series with pLAI reporter virus (read-out: RLUC CCM EC50) were 0.9 nM, 263 nM and 0.2 nM, respectively.

For `C[C@H]1CC[C@]2(COCCO2)[C@H]2CN1C(=O)c1c(O)c(=O)c(C(=O)NCc3c(F)cc(F)cc3F)cn12` [Example 139, (2R,3′S,7′R)-12′-hydroxy-3′-methyl-1′,11′-dioxo-N-(2,4,6-trifluorobenzyl)-1′,4′,5′,11′-tetrahydro-3′H,7′H-spiro[[1,4]dioxane-2,6′-[2,7]methanopyrido[1,2-a][1,4]diazonine]-10′-carboxamide], in the series “in vitro”, the CC50 at 5 days was determined as 30900 nM. Besides, the EC50 in the series on HIV-1 (IIIB) (setting [1]) was found to be 1.4 nM; in the series with pLAI reporter virus (read-out: RLUC 50% HS EC50), 83.7 nM; in the series on pLAI reporter virus (read-out: RLUC CCM EC50), 0.1 nM.

Molecule `CC1=NO[C@@]2(CC[C@H](C)N3C[C@H]2n2cc(C(=O)NCc4ccc(F)cc4F)c(=O)c(O)c2C3=O)C1=O` [Example 29, (3′S,5R,7′R)—N-(2,4-difluorobenzyl)-12′-hydroxy-3,3′-dimethyl-1′,4,11′-trioxo-1′,4′,5′,11′-tetrahydro-3′H,4H,7′H-spiro[isoxazole-5,6′-[2,7]methanopyrido[1,2-a][1,4]diazonine]-10′-carboxamide] registered a CC50 at 5 days in “in vitro” of at least 50000 nM. In addition, the EC50 is 1.7 nM in the series on HIV-1 (IIIB) (setting [1]), 168 nM with pLAI reporter virus (read-out: RLUC 50% HS EC50) and 0.8 nM in the series on pLAI reporter virus (read-out: RLUC CCM EC50).

Turning to `CC1=NO[C@@]2(CC[C@H](C)N3C[C@H]2n2cc(C(=O)NCc4ccc(F)c(Cl)c4F)c(=O)c(O)c2C3=O)[C@H]1O` [Example 35, (3′S,4S,5R,7′R)—N-(3-chloro-2,4-difluorobenzyl)-4,12′-dihydroxy-3,3′-dimethyl-1′,11′-dioxo-1′,4′,5′,11′-tetrahydro-3′H,4H,7′H-spiro[isoxazole-5,6′-[2,7]methanopyrido[1,2-a][1,4]diazonine]-10′-carboxamide], in “in vitro”, the CC50 at 5 days was 20300 nM. Besides, the EC50 worked out at 0.9 nM with HIV-1 (IIIB) (setting [1]), 102 nM in the series on pLAI reporter virus (read-out: RLUC 50% HS EC50) and 0.3 nM with pLAI reporter virus (read-out: RLUC CCM EC50).

With `COC1=NO[C@@]2(C=C[C@H](C)N3C[C@H]2n2cc(C(=O)NCc4ccc(F)c(Cl)c4F)c(=O)c(O)c2C3=O)C1` [Example 48, (3′S,5R,7′R)—N-(3-chloro-2,4-difluorobenzyl)-12′-hydroxy-3-methoxy-3′-methyl-1′,11′-dioxo-1′,11′-dihydro-3′H,4H,7′H-spiro[isoxazole-5,6′-[2,7]methanopyrido[1,2-a][1,4]diazonine]-10′-carboxamide], the CC50 at 5 days in the series “in vitro” came to 22900 nM. Also, the EC50 in the series with HIV-1 (IIIB) (setting [1]) came out at 0.4 nM; with pLAI reporter virus (read-out: RLUC 50% HS EC50), 8.1 nM; in the series with pLAI reporter virus (read-out: RLUC CCM EC50) it was 0.2 nM.

As for `C[C@H]1CC[C@@]2(CNC(=O)C2)[C@H]2CN1C(=O)c1c(O)c(=O)c(C(=O)NCc3c(F)cc(F)cc3F)cn12` [Example 57, (3R,3′S, 7′S)-12′-hydroxy-3′-methyl-1′,5,11′-trioxo-N-(2,4,6-trifluorobenzyl)-1′,4′,5′,11′-tetrahydro-3′H, 7′H-spiro[pyrrolidine-3,6′-[2,7]methanopyrido[ ],2-a][1,4]diazonine-10′-carboxamide], the CC50 in the series “in vitro” was at least 50000 nM. The EC50 with HIV-1 (IIIB) was found to be 27.9 nM; in the series on pLAI reporter virus (read-out: RLUC 50% HS EC50), 6 nM; in the series with pLAI reporter virus (read-out: RLUC CCM EC50), 13.8 nM.

In “in vitro”, `C[C@H]1CCC2(OCCO2)[C@H]2CN1C(=O)c1c(O)c(=O)c(C(=O)NCc3c(F)cc(F)cc3F)cn12` [Example 125, (3′S,7′R)-12′-hydroxy-3′-methyl-1′,11′-dioxo-N-(2,4,6-trifluorobenzyl)-1′,4′,5′,11′-tetrahydro-3′H,7′H-spiro[[1,3]dioxolane-2,6′-[2,7]methanopyrido[1,2-a][1,4]diazonine]-10′-carboxamide] registered a CC50 at 5 days of 24200 nM. In addition, the EC50 was 0.7 nM in the series on HIV-1 (IIIB) (setting [1]), 30.2 nM in the series on pLAI reporter virus (read-out: RLUC 50% HS EC50) and 0.2 nM with pLAI reporter virus (read-out: RLUC CCM EC50).

For the molecule `C[C@H]1CC[C@]2(CC(=O)N(C)O2)[C@H]2CN1C(=O)c1c(O)c(=O)c(C(=O)NCc3c(F)cc(F)cc3F)cn12` [Example 108, (3′S,5S,7′R)-12′-hydroxy-2,3′-dimethyl-1′,3,11′-trioxo-N-(2,4,6-trifluorobenzyl)-1′,4′,5′,11′-tetrahydro-3′H,7′H-spiro[isoxazolidine-5,6′-[2,7]methanopyrido[1,2-a][1,4]diazonine]-10′-carboxamide], the CC50 at 5 days in the series “in vitro” is at least 50000 nM. Besides, the EC50 turned out to be 3.5 nM in the series with HIV-1 (IIIB) (setting [1]), 7.8 nM in the series on pLAI reporter virus (read-out: RLUC 50% HS EC50) and 0.5 nM with pLAI reporter virus (read-out: RLUC CCM EC50).

In “in vitro”, `COC[C@@H]1CO[C@]2(CC[C@H](C)N3C[C@H]2n2cc(C(=O)NCc4c(F)cc(F)cc4F)c(=O)c(O)c2C3=O)O1` (single isomer, unassigned) [168 (peak 2)] registered a CC50 at 5 days of 37000 nM. In addition, the EC50 with HIV-1 (IIIB) (setting [1]) worked out at 2 nM; in the series on pLAI reporter virus (read-out: RLUC 50% HS EC50), 16.4 nM; in the series on pLAI reporter virus (read-out: RLUC CCM EC50), 0.6 nM.
